# Measured values reported in ChEMBL document CHEMBL3885861, “Open TG-GATES”.
# Species on record: Rattus norvegicus
# Assay: Open TG-GATES - Regimen: Single
# Type: toxicity, organism-based, Sprague-Dawley
# Parameters: regimen Single, gender Male, age 6 weeks
# Conditions: in vivo, po, route gavage; for Hb / Ht / Lym / MCH / MCHC / MCV / Mono / Neu / PT / Plat / RBC / Ret / WBC / APTT / Bas / Eos / Fbg: tissue Blood; for KIDNEY_L / KIDNEY_R / KIDNEY_TOTAL: tissue Kidney; for LIVER: tissue Liver; for ALP / ALT / AST / BUN / CRE / Ca / Cl / DBIL / GLC / IP / K / LDH / Na / PL / RALB / TBIL / TC / TP / gamma-GTP: tissue Plasma
# [1] = 50 mg/kg, 6 h, dose level Middle
# [2] = 50 mg/kg, 9 h, dose level Middle
# [3] = 50 mg/kg, 24 h, dose level Middle
# [4] = 150 mg/kg, 3 h, dose level High
# [5] = 150 mg/kg, 6 h, dose level High
# [6] = 150 mg/kg, 9 h, dose level High
# [7] = 150 mg/kg, 24 h, dose level High
smiles,measurement,setting,value
O=P1(N(CCCl)CCCl)NCCCO1 (configuration not stated) [CYCLOPHOSPHAMIDE ANHYDROUS],Hb,[1],12.8 g/dL
same,Ht,[1],37.8%
same,Lym,[1],73.2%
same,MCH,[1],21.1 pg
same,MCHC,[1],33.7%
same,MCV,[1],62.7 fL
same,Mono,[1],2.6%
same,Neu,[1],22.8%
same,PT,[1],14.2 s
same,Plat,[1],115.3 x10_4/uL
same,RBC,[1],603.6 x10_4/ul
same,Ret,[1],8.9%
same,WBC,[1],84.9 x10_2/uL
same,KIDNEY_L,[1],0.9 g
same,KIDNEY_R,[1],0.8 g
same,KIDNEY_TOTAL,[1],1.7 g
same,LIVER,[1],7.5 g
same,ALP,[1],1677 IU/L
same,ALT,[1],35 IU/L
same,AST,[1],72.8 IU/L
same,BUN,[1],9.6 mg/dL
same,CRE,[1],0.2 mg/dL
same,Ca,[1],10.9 mg/dL
same,Cl,[1],106.2 meq/L
same,DBIL,[1],0.016 mg/dL
same,GLC,[1],171.6 mg/dL
same,IP,[1],9.9 mg/dL
same,K,[1],4.4 meq/L
same,LDH,[1],65 IU/L
same,Na,[1],141.4 meq/L
same,PL,[1],134 mg/dL
same,RALB,[1],2.5 g/dL
same,TBIL,[1],0.064 mg/dL
same,TC,[1],72.2 mg/dL
same,TP,[1],5.4 g/dL
same,gamma-GTP,[1],1.4 IU/L
same,TERMINAL_BW,[2],187.4 g
same,APTT,[2],17.8 s
same,Bas,[2],0%
same,Eos,[2],1%
same,Fbg,[2],284.8 mg/dL
same,Hb,[2],12.7 g/dL
same,Ht,[2],37.5%
same,Lym,[2],76%
same,MCH,[2],20.9 pg
same,MCHC,[2],33.8%
same,MCV,[2],61.8 fL
same,Mono,[2],2%
same,Neu,[2],21%
same,PT,[2],14.1 s
same,Plat,[2],112.4 x10_4/uL
same,RBC,[2],606.8 x10_4/ul
same,Ret,[2],9.1%
same,WBC,[2],56.3 x10_2/uL
same,KIDNEY_L,[2],0.8 g
same,KIDNEY_R,[2],0.8 g
same,KIDNEY_TOTAL,[2],1.7 g
same,LIVER,[2],7.1 g
same,ALP,[2],1578.4 IU/L
same,ALT,[2],28.4 IU/L
same,AST,[2],67.4 IU/L
same,BUN,[2],9.6 mg/dL
same,CRE,[2],0.2 mg/dL
same,Ca,[2],10.6 mg/dL
same,Cl,[2],106.8 meq/L
same,DBIL,[2],0.016 mg/dL
same,GLC,[2],177.2 mg/dL
same,IP,[2],10.7 mg/dL
same,K,[2],4.1 meq/L
same,LDH,[2],55.4 IU/L
same,Na,[2],142.8 meq/L
same,PL,[2],125.4 mg/dL
same,RALB,[2],2.5 g/dL
same,TBIL,[2],0.066 mg/dL
same,TC,[2],73.8 mg/dL
same,TP,[2],5.3 g/dL
same,gamma-GTP,[2],1.6 IU/L
same,TERMINAL_BW,[3],200.3 g
same,APTT,[3],24.4 s
same,Bas,[3],0%
same,Eos,[3],1%
same,Fbg,[3],285.8 mg/dL
same,Hb,[3],13 g/dL
same,Ht,[3],38.7%
same,Lym,[3],80.8%
same,MCH,[3],20.8 pg
same,MCHC,[3],33.5%
same,MCV,[3],62 fL
same,Mono,[3],2.4%
same,Neu,[3],15.4%
same,PT,[3],14.5 s
same,Plat,[3],114 x10_4/uL
same,RBC,[3],624.4 x10_4/ul
same,Ret,[3],5.5%
same,WBC,[3],30.3 x10_2/uL
same,KIDNEY_L,[3],0.9 g
same,KIDNEY_R,[3],0.9 g
same,KIDNEY_TOTAL,[3],1.8 g
same,LIVER,[3],8.4 g
same,ALP,[3],1583 IU/L
same,ALT,[3],36.8 IU/L
same,AST,[3],68.8 IU/L
same,BUN,[3],14 mg/dL
same,CRE,[3],0.2 mg/dL
same,Ca,[3],11 mg/dL
same,Cl,[3],106 meq/L
same,DBIL,[3],0.026 mg/dL
same,GLC,[3],176.4 mg/dL
same,IP,[3],8.3 mg/dL
same,K,[3],4.4 meq/L
same,LDH,[3],101.8 IU/L
same,Na,[3],140.4 meq/L
same,PL,[3],143.2 mg/dL
same,RALB,[3],2.5 g/dL
same,TBIL,[3],0.066 mg/dL
same,TC,[3],79.4 mg/dL
same,TP,[3],5.4 g/dL
same,gamma-GTP,[3],1 IU/L
same,TERMINAL_BW,[4],193.2 g
same,APTT,[4],16.8 s
same,Bas,[4],0%
same,Eos,[4],0.8%
same,Fbg,[4],274.6 mg/dL
same,Hb,[4],12.8 g/dL
same,Ht,[4],38.2%
same,Lym,[4],77.6%
same,MCH,[4],21.2 pg
same,MCHC,[4],33.3%
same,MCV,[4],63.5 fL
same,Mono,[4],2.8%
same,Neu,[4],18%
same,PT,[4],14 s
same,Plat,[4],118.8 x10_4/uL
same,RBC,[4],602 x10_4/ul
same,Ret,[4],9.4%
same,WBC,[4],95.6 x10_2/uL
same,KIDNEY_L,[4],0.9 g
same,KIDNEY_R,[4],0.9 g
same,KIDNEY_TOTAL,[4],1.7 g
same,LIVER,[4],8 g
same,ALP,[4],1465.2 IU/L
same,ALT,[4],33.2 IU/L
same,AST,[4],72 IU/L
same,BUN,[4],11.2 mg/dL
same,CRE,[4],0.2 mg/dL
same,Ca,[4],10.9 mg/dL
same,Cl,[4],105.2 meq/L
same,DBIL,[4],0.018 mg/dL
same,GLC,[4],176 mg/dL
same,IP,[4],8.6 mg/dL
same,K,[4],4.1 meq/L
same,LDH,[4],75.6 IU/L
same,Na,[4],140 meq/L
same,PL,[4],136.8 mg/dL
same,RALB,[4],2.5 g/dL
same,TBIL,[4],0.064 mg/dL
same,TC,[4],71 mg/dL
same,TP,[4],5.3 g/dL
same,gamma-GTP,[4],1 IU/L
same,TERMINAL_BW,[5],185.5 g
same,APTT,[5],17.1 s
same,Bas,[5],0%
same,Eos,[5],1%
same,Fbg,[5],284.8 mg/dL
same,Hb,[5],13.2 g/dL
same,Ht,[5],39.4%
same,Lym,[5],71.4%
same,MCH,[5],20.6 pg
same,MCHC,[5],33.6%
same,MCV,[5],61.3 fL
same,Mono,[5],2.4%
same,Neu,[5],25%
same,PT,[5],14.2 s
same,Plat,[5],119.4 x10_4/uL
same,RBC,[5],643 x10_4/ul
same,Ret,[5],9%
same,WBC,[5],86.7 x10_2/uL
same,KIDNEY_L,[5],0.8 g
same,KIDNEY_R,[5],0.8 g
same,KIDNEY_TOTAL,[5],1.7 g
same,LIVER,[5],6.9 g
same,ALP,[5],1365.8 IU/L
same,ALT,[5],34.8 IU/L
same,AST,[5],76.8 IU/L
same,BUN,[5],12 mg/dL
same,CRE,[5],0.2 mg/dL
same,Ca,[5],10.8 mg/dL
same,Cl,[5],107 meq/L
same,DBIL,[5],0.012 mg/dL
same,GLC,[5],184.4 mg/dL
same,IP,[5],10.2 mg/dL
same,K,[5],4.5 meq/L
same,LDH,[5],64.8 IU/L
same,Na,[5],143.2 meq/L
same,PL,[5],138.8 mg/dL
same,RALB,[5],2.5 g/dL
same,TBIL,[5],0.062 mg/dL
same,TC,[5],77.4 mg/dL
same,TP,[5],5.5 g/dL
same,gamma-GTP,[5],1.2 IU/L
same,TERMINAL_BW,[6],190.2 g
same,APTT,[6],16.2 s
same,Bas,[6],0%
same,Eos,[6],0.8%
same,Fbg,[6],293.4 mg/dL
same,Hb,[6],13.1 g/dL
same,Ht,[6],39.2%
same,Lym,[6],79.4%
same,MCH,[6],20.5 pg
same,MCHC,[6],33.5%
same,MCV,[6],61.1 fL
same,Mono,[6],1.8%
same,Neu,[6],17.8%
same,PT,[6],14 s
same,Plat,[6],117.6 x10_4/uL
same,RBC,[6],642.6 x10_4/ul
same,Ret,[6],8.1%
same,WBC,[6],50.7 x10_2/uL
same,KIDNEY_L,[6],0.8 g
same,KIDNEY_R,[6],0.8 g
same,KIDNEY_TOTAL,[6],1.7 g
same,LIVER,[6],7.2 g
same,ALP,[6],1219.4 IU/L
same,ALT,[6],26.2 IU/L
same,AST,[6],67.6 IU/L
same,BUN,[6],13 mg/dL
same,CRE,[6],0.2 mg/dL
same,Ca,[6],10.7 mg/dL
same,Cl,[6],106.6 meq/L
same,DBIL,[6],0.014 mg/dL
same,GLC,[6],185.2 mg/dL
same,IP,[6],10.5 mg/dL
same,K,[6],4.2 meq/L
same,LDH,[6],57.8 IU/L
same,Na,[6],142.6 meq/L
same,PL,[6],136.6 mg/dL
same,RALB,[6],2.6 g/dL
same,TBIL,[6],0.066 mg/dL
same,TC,[6],78.2 mg/dL
same,TP,[6],5.4 g/dL
same,gamma-GTP,[6],1.4 IU/L
same,TERMINAL_BW,[7],187.2 g
same,APTT,[7],16.8 s
same,Bas,[7],0.2%
same,Eos,[7],1.4%
same,Fbg,[7],285.2 mg/dL
same,Hb,[7],13.3 g/dL
same,Ht,[7],39%
same,Lym,[7],63.8%
same,MCH,[7],21 pg
same,MCHC,[7],34.1%
same,MCV,[7],61.6 fL
same,Mono,[7],2.8%
same,Neu,[7],31.8%
same,PT,[7],14.3 s
same,Plat,[7],100.5 x10_4/uL
same,RBC,[7],634 x10_4/ul
same,Ret,[7],5%
same,WBC,[7],18 x10_2/uL
same,KIDNEY_L,[7],0.9 g
same,KIDNEY_R,[7],0.9 g
same,KIDNEY_TOTAL,[7],1.8 g
same,LIVER,[7],7.4 g
same,ALP,[7],1374 IU/L
same,ALT,[7],27.8 IU/L
same,AST,[7],67.8 IU/L
same,BUN,[7],17 mg/dL
same,CRE,[7],0.2 mg/dL
same,Ca,[7],10.5 mg/dL
same,Cl,[7],107 meq/L
same,DBIL,[7],0.02 mg/dL
same,GLC,[7],178.8 mg/dL
same,IP,[7],9 mg/dL
same,K,[7],4.6 meq/L
same,LDH,[7],55.2 IU/L
same,Na,[7],142 meq/L
same,PL,[7],138.2 mg/dL
same,RALB,[7],2.5 g/dL
same,TBIL,[7],0.068 mg/dL
same,TC,[7],86.2 mg/dL
same,TP,[7],5.3 g/dL
same,gamma-GTP,[7],1 IU/L
